Reference: patent publication US20190008957A1, “COMBINATION THERAPIES INCLUDING INHIBITORS OF THE EXTRACELLULAR DOMAIN OF E-CADHERIN” (The Research Foundation for The State of New York, priority 2012, published 2019)

What was measured:
[1] = system: skin (PAM212, CC4A, SCC12b, SCC13) and oropharyngeal (FADU) cells; assay: Transwell migration of SCC cells; format: cell-based
Description: (§1) For BrdU staining, cells were incubated with 10 μM BrdU for 2 h prior to fixation and processed for immunofluorescence microscopy as previously described (Brouxhon et al., Cancer Res. 67:7654-64, 2007). For BrdU analyses, cells were counted from 6 low-power fields (×100) per section. BrdU incorporation was also analyzed by a cell proliferation ELISA 5-bromo-2′-deoxyuridine (BrdU) (colorimetric) kit (Roche, Stockholm, Sweden), according to the manufacturer's instructions. Migration and invasion of cells were measured using 8.0 μm pore BD BioCoat Control Insert 24-well plates (no. 354578) and Matrigel Invasion Chamber 24-well Plates (no. 354480), respectively (BD Bioscience). Cells were collected, washed, and 2×10^5 cells were plated in 0.4% FBS medium in the top chamber, with 0-20 μg/mL of rhEcad/Fc in the bottom chamber. After 22 h, cells on the top were removed using a cotton swab. Migrated or invaded cells on the lower surface were fixed with methanol, stained with 0.5% crystal violet, examined by bright field microscopy and photographed. Migration or invasion was quantitated by counting migrated or invaded cells in at least ten random high-power fields per insert and expressed as averages. Results are presented as fold change of the number of migrated/invaded cells to the untreated controls in triplicate experiments.

[2] = system: oropharyngeal FADU and skin SCC (PAM212, CC4A, SCC13 and SCC12b) cell lines; assay: Proliferation in oropharyngeal and skin SCC cell lines; format: cell-based
Description: as §1

[3] = system: skin (SCC12b, SCC13, PAM212 and CC4A) and the head & neck FADU cell line; assay: Matrigel invasion of SCC cells; format: cell-based
MMP-2 and MMP-9 = assay: MMP-9 ELISA and gelatin zymography of conditioned media; format: cell-based, mouse; details: PAM212 cells; inhibitors either alone or in combination
Description: Conditioned media from control or sEcad treated cells were concentrated 10-fold using Centricon devices (Millipore; Bedford, Mass.) according to the manufacturer's instructions and applied to SDS-PAGE gels containing gelatin (0.1% w/v). Gels were washed twice in renaturing buffer (Invitrogen) and incubated at 37° C. for 24 h in developing buffer (Invitrogen). Gels were stained with Coomassie blue and destained with methanol:acetic acid (50:10). Zymogram is representative of triplicate experiments.
Conditioned media from human and mouse cells were analyzed for MMP-9 using human and mouse […] Quantikine ELISA Kits and mouse MMP-9 ELISA kit (R&D Systems, Minneapolis, Minn.), according to the manufacturer's specifications, respectively. For measuring mouse MMP-9, serum-free medium was added to cell cultures and cells were exposed to increasing concentrations of sEcad (rmEcad/Fc; R&D Systems) for 24 hours. The culture media were collected and concentrated using Centrifugal Ultra Filters (Millipore, Billerica, Mass.) and MMP-9 levels were measured by ELISA. Each experiment was performed in triplicate.

[4] = system: MEK1/2, ERK1/2, PI3K, Akt, mTOR, p70S6K, 4EBP1; assay: Western blot of downstream MAPK-PI3K/Akt/mTOR signaling in SCC cell lines; format: cell-based
Description: (§3) After brief sonication, lysates were cleared by centrifugation at 4° C. […] After transfer to nitrocellulose membrane and blocking with 1% BSA, samples were probed with primary antibodies. Western blot images were captured using HP Scanjet G4050 and analyzed relative to G3PDH or actin using NIH Scion Image.
(§4) Antibodies against total HER1 and HER 4 and phosphorylated HER1-4, pPI3K, pAkt, pmTOR, p4E-BP1, pRaptor and pp70S6K obtained from Cell Signaling Technologies. Monoclonal antibodies to HER3 and HER4 were obtained from Thermo Scientific. Polyclonal antibody to the extracellular domain of E-cadherin and monoclonal antibody to α-actin were obtained from Santa Cruz Biotechnology. Monoclonal antibody to the extracellular domain of E-cadherin (DECMA-1) and to His Tag were obtained from Sigma and Abcam, respectively. Monoclonal antibody to G3PDH, ubiquitin and rat IgG1 were obtained from Ambion, Zymed and Southern Biotechnology, respectively.

[5] = system: MCF-7, SKBR3 and MDA-MB-231 breast cancer cell lines; assay: BrdU proliferation in breast cancer cell lines; format: cell-based, human
Description: as §1

[6] = system: ERK1/2, PI3K/Akt, mTOR, p70S6K, 4EBP1; assay: Western blot of downstream MAPK-PI3K/Akt/mTOR signaling in breast cancer cell lines; format: cell-based, human
Description: We speculated that this effect may be mediated by molecular abnormalities in signaling pathways that promote cell growth downstream of HERs. Specifically, the lipid kinase phosphoinositide-3-kinase (PI3K) and the protein-serine/threonine kinases Akt, and mTOR signaling pathways are important mediators of HER receptor signaling and are causally involved in breast and other malignancies (Schmelzle and Hall, Cell 103:253-262, 2000). […] As the p70S6 kinase and eIF4E binding protein 1 (4EBP1) are among the most well characterized targets of mTOR (Schmelzle and Hall, Cell 103:253-262, 2000), we next studied the phosphorylation of p70S6K at Thr-389 and 4EBP1 at Thr-37 by western blotting.
Immunoprecipitation assays were carried out by harvesting tissues or cells with immunoprecipitation lysis buffer (20 mM Tris-HCl, pH 7.5; 137 mM NaCl; 100 mM NaF; 10% glycerol (vol/vol); 1% (vol/vol) Nonidet P-40; 1 mM PMSF and protease inhibitor cocktail (Sigma)). After brief sonication, lysates were cleared by centrifugation at 4° C. Supernatants were precleared and incubated with EGFR/HER1, HER2, HER3, HER4 or E-cadherin ectodomain-specific antibodies for 4 h and protein A/G plus agarose beads (Santa Cruz, sc-2003) for 2 h at 4° C. The immunocomplexes were washed three times, boiled in sample buffer (60 mM Tris-Cl, pH 6.8; 2% SDS (vol/vol); 10% glycerol (vol/vol); 5% […] (vol/vol); and 0.01% bromophenol blue (vol/vol), and loaded on SDS-PAGE for protein analysis. Protein extraction in cells was performed on ice using total protein extraction buffer: 20 mM Tris pH 7.5, 137 mM NaCl, 100 mM NaF, 10% glycerol, 1% NP40, 1 mM PMSF and protease inhibitor cocktail (Sigma). For normal and tumor tissues, sEcad was extracted in an aqueous solution (PBS) and not in the protein extraction buffer. Protein concentration was measured using a BCA Protein Assay Kit (Pierce). […] Western blot images were captured using HP Scanjet G4050 and analyzed relative to G3PDH or actin using NIH Scion Image. […]

[7] = system: MDA-MB-231 and MCF-7 breast cancer cells; assay: Matrigel invasion of breast cancer cells; format: cell-based, human; details: MCF-7 cells, 24 h, equimolar concentrations
Description: as §1, with “After 22 h, cells on the top were removed using a cotton swab.” left out

HER1-4 [8] = assay: Western blot of HER phosphorylation in breast cancer cells; format: cell-based, human; details: MCF-7 and SKBR3 cells, 26 h after stimulation
Description: (§2) The association of sEcad with these RTK was also confirmed by in vitro studies. Specifically, in cell culture systems, extracts from sEcad (rhEcad/Fc:His tagged) treated E-cadherin positive MCF-7 and E-cadherin negative SKBR3 and MDA-MB-231 breast cancer cells were immunoprecipitated with HER1-4-specific antibodies and analyzed by western blotting with a His-tagged-specific antibody. Here, we detected HER1-4-sEcad, HER1-2-sEcad and HER1-sEcad interactions in MCF, SKBR3 and MDA-MB-231 breast cancer cells, respectively. […] Because ligand binding to the HER family of receptors induces the formation of homo- and heterodimers, resulting in phosphorylation on specific tyrosine residues within the cytoplasmic domain (Yarden and Siliwkowski, Nature Reviews. 2:127-137, 2001), we next used western blot assays to examine whether sEcad promotes HER phosphorylation and downstream signaling.
Immunoprecipitation assays were carried out by harvesting tissues or cells with immunoprecipitation lysis buffer (20 mM Tris-HCl, pH 7.5; 137 mM NaCl; 100 mM NaF; 10% glycerol (vol/vol); 1% (vol/vol) Nonidet P-40; 1 mM PMSF and protease inhibitor cocktail (Sigma)). After brief sonication, lysates were cleared by centrifugation at 4° C. […] Western blot images were captured using HP Scanjet G4050 and analyzed relative to G3PDH or actin using NIH Scion Image. […]

HER1-4 [9] = assay: Immunoprecipitation of sEcad with HER receptors in breast cancer cells; format: binding, human
Description: as §2
Immunoprecipitation assays were carried out by harvesting tissues or cells with immunoprecipitation lysis buffer (20 mM Tris-HCl, pH 7.5; 137 mM NaCl; 100 mM NaF; 10% glycerol (vol/vol); 1% (vol/vol) Nonidet P-40; 1 mM PMSF and protease inhibitor cocktail (Sigma)). After brief sonication, lysates were cleared by centrifugation at 4° C. […] The immunocomplexes were washed three times, boiled in sample buffer (60 mM Tris-Cl, pH 6.8; 2% SDS (vol/vol); 10% glycerol (vol/vol); 5% […] (vol/vol); and 0.01% bromophenol blue (vol/vol), and loaded on SDS-PAGE for protein analysis. Protein extraction in cells was performed on ice using total protein extraction buffer: 20 mM Tris pH 7.5, 137 mM NaCl, 100 mM NaF, 10% glycerol, 1% NP40, 1 mM PMSF and protease inhibitor cocktail (Sigma). For normal and tumor tissues, sEcad was extracted in an aqueous solution (PBS) and not in the protein extraction buffer. Protein concentration was measured using a BCA Protein Assay Kit (Pierce). […] Western blot images were captured using HP Scanjet G4050 and analyzed relative to G3PDH or actin using NIH Scion Image.

[10] = system: breast (MCF-7, SKBR3) cells; assay: Transwell migration of breast cancer cells; format: cell-based, human; details: MCF-7 cells, 24 h, equimolar concentrations
Description: as §1, with “After 22 h, cells on the top were removed using a cotton swab.” left out

[11] = system: HER2 overexpressing BT474 cells; details: cited from earlier work
HER1, HER2, IGF-1R = assay: Western blot of receptor phosphorylation in skin and oropharyngeal SCC cell lines; format: cell-based; details: PAM212 cells
Description: as §3, §4

survivin = details: HER2-positive tumors from patients; cited from earlier work
[12] = PAM212 cells, PI3K or MEK inhibitor 20 μM
[13] = PAM212 skin SCC cells, HER inhibitors

Compound: COc1cccc(-c2cc(=O)c3ccccc3o2)c1N [PD98059]
- sEcad-induced migration [1, 12]: blocked
- sEcad-induced PAM212 proliferation ([2]; PAM212 cells, inhibitor 20 μM): less significant effects
- sEcad-induced invasion [3, 12]: blocked
- sEcad-induced activation of MMP-2 and MMP-9 (MMP-2 and MMP-9): significantly inhibited sEcad-induced activation of MMP-2 and MMP-9
- Akt phosphorylation by sEcad in the presence of the inhibitor ([4]; PAM212 cells, inhibitor 20 μM): enhanced
- ERK1/2 phosphorylation ([4]; PAM212 cells, inhibitor 20 μM): decreased ERK1/2 phosphorylation
- mTOR/p70S6K/4EBP1 phosphorylation ([4]; PAM212 cells, inhibitor 20 μM, even in the absence of rmEcad/Fc): increased

Compound: rhEcad/Fc: Recombinant human E-cadherin Fc chimera; extracellular domain residues 155-707 fused to human IgG1 Fc, 6x histidine-tagged
- BrdU incorporation ([5]; 10 and 20 μg/mL, MCF-7, SKBR3 and MDA-MB-231): significantly increased
- proliferation ([5]; MCF-7 cells, 24 h, equimolar concentrations): significantly increased proliferation, migration and invasion
- phosphorylated p70S6K (Thr-389) and 4EBP1 (Thr-37) levels ([6]; MCF-7, SKBR3 cells versus untreated controls): higher
- ERK1/2, PI3K/Akt and mTOR activation ([6]; MCF-7 and SKBR3 cells): activation of ERK1/2, PI3K/Akt and mTOR
- Akt activation ([6]; MDA-MB-231 TNBC cells): activation
- phosphorylated p70S6K (Thr-389) and 4EBP1 (Thr-37) levels ([4]; PAM212, CC4A cells versus untreated controls): higher
- invasion [7]: significantly increased proliferation, migration and invasion
- HER1-4 phosphorylation (HER1-4 [8]): notably increased
- receptors interacting with sEcad (HER1-4 [9]; MCF-7 cells (E-cadherin positive)): HER1-4-sEcad
- receptors interacting with sEcad (HER1-4 [9]; MDA-MB-231 cells (E-cadherin negative)): HER1-sEcad
- receptors interacting with sEcad (HER1-4 [9]; SKBR3 cells (E-cadherin negative)): HER1-2-sEcad
- migration [10]: significantly increased proliferation, migration and invasion

Compound: CS(=O)(=O)CCNCc1ccc(-c2ccc3ncnc(Nc4ccc(OCc5cccc(F)c5)c(Cl)c4)c3c2)o1 [Lapatinib]
- sEcad-induced migration [1, 13]: effectively inhibited sEcad-induced proliferation, migration and invasion
- sEcad-induced proliferation [2, 13]: effectively inhibited sEcad-induced proliferation, migration and invasion
- sEcad-induced invasion [3, 13]: effectively inhibited sEcad-induced proliferation, migration and invasion
- basal and sEcad-induced BrdU incorporation ([5]; breast cancer cells, Canertinib 1 μM, Lapatinib 5 μM, Gefitinib 5 μM): significantly reduced both basal and sEcad-induced BrdU incorporation
- apoptosis [11]: induced apoptosis
- survivin expression [11]: markedly reduced survivin expression
- sEcad-induced phosphorylation of 4EBP1 ([4]; PAM212 cells): minimal changes
- sEcad-induced phosphorylation of ERK1/2, Akt and p70S6K ([4]; PAM212 cells): significantly down-regulated
- sEcad-induced phosphorylation of PI3K ([4]; PAM212 cells): minimal changes
- sEcad-induced HER1 phosphorylation (HER1, HER2, IGF-1R): significantly down-regulated
- sEcad-induced HER2 phosphorylation (pHER2) (HER1, HER2, IGF-1R): minimal changes
- phospho-IGF-1R levels (HER1, HER2, IGF-1R; in the presence of sEcad, compared to corresponding controls): did not alter
- survivin expression levels in tumors (survivin): marked inhibition of survivin expression levels
